In article PMC4742234, “Screening of Drug Metabolizing Enzymes for the Ginsenoside Compound K In Vitro: An Efficient Anti-Cancer Substance Originating from Panax Ginseng” (PLoS ONE, 2016):
Several values for one entry are separate records, joined by “and”; a condition that tells them apart may be missing. Equal values may be shown once.

Legend:
Format in all cases: in vitro ADME
[1] = Kinetic analysis of CK metabolism in human liver microsomes; conditions: human, human liver microsomes, pH 7.4, HLMs 0.5 mg/mL, CK 10–100 μM, 37°C, NADPH
Protocol: (§1) The method was conducted according to our previous study with some modifications. The CYP isoform-specific probe reactions used were phenacetin O-deethylation (for CYP1A2), coumarin 7-hydroxylation (for CYP2A6), tolbutamide 4-hydroxylation (for CYP2C9), metoprolol α-hydroxylation (for CYP2D6), chlorzoxazone 6-hydroxylation (for CYP2E1),S-Mephenytoin 4-hydroxylation (for CYP2C19), and midazolam 1-hydroxylation (for CYP3A4). The kinetic study of CK was conducted with HLMs. A 0.2 mL incubation mixture that consisted of CK (as a substrate), the HLMs (0.5 mg/mL) or CYP isoforms (10 pmol), and 0.1 M sodium phosphate buffer (pH 7.4) was pre-warmed for 5 min at 37°C. The reaction was initiated by the addition of 1 mg/mL triphosphopyridine nucleotide (NADPH). All the reagents were dissolved in methanol, and the final solvent concentration in all incubations (including the controls) was 1%. The final incubations were performed in a shaking water bath (37°C) for 30 min. The reactions were stopped by adding 0.2 mL ice-cold acetonitrile, which contains irbesartan (114.9 ng/mL) as the internal standard. The samples were vortexed for 5 min. After centrifugation (12000×g for 10 min), the supernatants were transferred, and aliquots of 20 μL were injected into the HPLC-MS/MS system for analysis. […]

[2] = test system: human liver microsomes (HLMs); test: as above; conditions: HLMs 0.5 mg/mL, CK 10–100 μM, 37°C, 30 min, NADPH
Protocol: as §1

CYP3A4 = CYP3A4 (Homo sapiens, UniProt P08684); test: Kinetic analysis of CK metabolism by recombinant CYP3A4; design: purchased Cypex Ltd. (U.K.); conditions: recombinant CYP3A4 10 pmol, CK 10–100 μM
Protocol: (§2) The method was conducted according to our previous study with some modifications. The CYP isoform-specific probe reactions used were phenacetin O-deethylation (for CYP1A2), coumarin 7-hydroxylation (for CYP2A6), tolbutamide 4-hydroxylation (for CYP2C9), metoprolol α-hydroxylation (for CYP2D6), chlorzoxazone 6-hydroxylation (for CYP2E1),S-Mephenytoin 4-hydroxylation (for CYP2C19), and midazolam 1-hydroxylation (for CYP3A4). The kinetic study of CK was conducted with HLMs. A 0.2 mL incubation mixture that consisted of CK (as a substrate), the HLMs (0.5 mg/mL) or CYP isoforms (10 pmol), and 0.1 M sodium phosphate buffer (pH 7.4) was pre-warmed for 5 min at 37°C. The reaction was initiated by the addition of 1 mg/mL triphosphopyridine nucleotide (NADPH). […]
The kinetic parameters for the metabolism of CK were determined by incubating increasing concentrations of CK (10–100 μM) at 37°C with the HLMs and NADPH under the incubation conditions as described in detail previously. The equation of CK reaction velocity (V) in the HLMs or CYP isoforms is expressed as V = (C0–Ct)/T/Cp, where C0and Ct are the initial and final concentrations of CK in the incubation solution, respectively, T is the incubation time (min), and Cp is the protein concentration (mg/mL or nmol). All values were expressed as the mean±standard deviation (SD). […]

CYP2C9 = CYP2C9 (Homo sapiens, UniProt P11712); test: Metabolic clearance rate of CK with recombinant CYP2C9 under sulfaphenazole; design: purchased Cypex Ltd. (U.K.); conditions: recombinant CYP2C9, CK 50 μM, sulfaphenazole 1 μM
Protocol: as §2
To screen the specific CYP isoform responsible for the CK metabolism, we determined the inhibitory effect of specific inhibitors on the metabolism of CK in the HLMs as described in detail previously. […] The inhibitory effects of the above specific inhibitors on the metabolic clearance rate of CK were evaluated separately to screen the CYP isoforms responsible for the CK metabolism. The relative activity of the CYP isoforms was calculated by dividing the peak area of CK when incubated with the inhibitor by that of CK from the negative controls. […]

CYP3A4, sequence (P08684 whole entry, canonical isoform): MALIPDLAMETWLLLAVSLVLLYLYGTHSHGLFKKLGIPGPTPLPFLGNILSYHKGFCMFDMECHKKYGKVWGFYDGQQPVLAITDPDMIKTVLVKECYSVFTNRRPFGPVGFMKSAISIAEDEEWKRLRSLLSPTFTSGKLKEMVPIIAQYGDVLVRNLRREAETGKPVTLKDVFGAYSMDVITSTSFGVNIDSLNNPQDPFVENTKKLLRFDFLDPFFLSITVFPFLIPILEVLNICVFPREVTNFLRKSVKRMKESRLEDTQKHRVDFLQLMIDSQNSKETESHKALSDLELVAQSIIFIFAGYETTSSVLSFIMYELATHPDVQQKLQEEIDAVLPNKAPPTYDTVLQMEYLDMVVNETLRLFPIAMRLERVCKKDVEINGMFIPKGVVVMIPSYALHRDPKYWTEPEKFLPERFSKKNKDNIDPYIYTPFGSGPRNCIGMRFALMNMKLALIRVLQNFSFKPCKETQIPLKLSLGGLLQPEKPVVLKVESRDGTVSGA
CYP2C9, sequence (P11712 whole entry): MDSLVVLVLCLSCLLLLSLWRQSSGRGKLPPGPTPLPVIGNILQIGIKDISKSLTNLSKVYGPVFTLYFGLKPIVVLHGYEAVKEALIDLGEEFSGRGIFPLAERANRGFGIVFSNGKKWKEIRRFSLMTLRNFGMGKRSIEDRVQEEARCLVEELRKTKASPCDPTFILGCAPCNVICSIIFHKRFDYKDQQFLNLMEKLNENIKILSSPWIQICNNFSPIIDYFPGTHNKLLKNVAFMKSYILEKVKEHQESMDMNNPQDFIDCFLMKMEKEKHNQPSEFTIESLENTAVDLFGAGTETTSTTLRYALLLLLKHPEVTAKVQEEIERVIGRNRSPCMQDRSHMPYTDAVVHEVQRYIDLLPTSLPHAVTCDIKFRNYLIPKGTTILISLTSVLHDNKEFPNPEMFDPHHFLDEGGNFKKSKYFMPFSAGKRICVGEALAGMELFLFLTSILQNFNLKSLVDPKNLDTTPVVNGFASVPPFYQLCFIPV

CC(C)=CCC[C@](C)(OC1O[C@H](CO)[C@@H](O)[C@H](O)[C@H]1O)[C@H]1CC[C@]2(C)[C@@H]1[C@H](O)C[C@@H]1[C@@]3(C)CC[C@H](O)C(C)(C)[C@@H]3CC[C@]12C (stereo partly drawn) [CK, 20-O-β-(D-glucopyranosyl)-20(S)-protopanaxadiol]
Km at 30 min [1]: 84.2 ± 21.9 µM
Vmax of CK metabolism [2]: 0.28±0.04 nmol/mg protein/min and 0.2840 nmol/mg protein/min
Vmax of CK metabolism (CYP3A4): 0.68±0.04 nmol/nmol P450/min and 0.6756 nmol/nmol P450/min
MCR of CK, of that of the control (CYP2C9): 22.0%
